PubChem BioAssay (NCI)
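Cells were grown in 96-well plates and exposed to each compound for 48 hours at five concentrations; endpoints were interpolated linearly between bracketing concentrations, or set to the highest concentration if not reached. TGI denotes the concentration required for complete inhibition of growth.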

What was measured:
Assay in all cases: DTP human tumour cell line panel, 48 h
[1] = test system: BT-549 breast
[2] = test system: HS 578T breast
[3] = test system: MDA-MB-231 breast
[4] = test system: NCI/ADR-RES ovarian
[5] = test system: U251 CNS
[6] = test system: UACC-257 melanoma

For C/C(=N\Nc1nc2ccccc2o1)c1ccncn1, the TGI [1] was > 100 µM, the TGI [2] was 27.1 µM and the TGI [3] was 97.1 µM. The TGI [4] was 0.84 µM, the TGI [5] was > 36.4 µM and the TGI [6] was > 27.5 µM.

In the case of CCCCP(CCCC)(CCCC)=C(C(=O)OC)C(C(=O)OC)=C1SC(C(=O)OC)=C(C(=O)OC)S1, the TGI [1] is reported as 30.9 µM, the TGI [2] is reported as 43.7 µM and the TGI [3] is reported as 35.7 µM. It also gave a TGI [5] of 29.5 µM and a TGI [6] of 37.3 µM.

For CC(C)=CCC[C@H](C)[C@H]1CC[C@@H](C)c2cc(O)c(C)cc21, the TGI [1] was 32.7 µM, the TGI [2] was 37.8 µM and the TGI [3] was 34 µM. The TGI [4] was 36.7 µM, the TGI [5] was 31.1 µM and the TGI [6] was 31.7 µM.

In the case of CCN(CC)c1nc(N(C)C)c2cc(OC)ccc2n1, the TGI [1] is reported as > 100 µM, the TGI [2] is reported as > 100 µM and the TGI [3] is reported as > 100 µM. For the same molecule, the TGI [4] was > 100 µM, the TGI [5] was > 100 µM and the TGI [6] was 81.3 µM.

Work on N#CC(c1cc(Cl)ncn1)c1nc2ccccc2s1 (configuration not stated) yielded a TGI [1] of 15.2 µM, a TGI [3] of 60.4 µM and a TGI [4] of 15.2 µM. For the same molecule, the TGI [5] was 18.2 µM and the TGI [6] was 32.2 µM.

For Cc1cc(-c2nc3cc(F)c(F)cc3s2)ccc1N, the TGI [1] was > 100 µM, the TGI [2] was > 100 µM and the TGI [3] was > 100 µM. The TGI [4] was > 100 µM, the TGI [5] was > 100 µM and the TGI [6] was > 100 µM.

For O=C1NN(c2ccccc2)C(=O)C2C3c4ccccc4C(c4ccccc43)C12 (configuration not stated), the TGI [2] was > 100 µM, the TGI [3] was > 100 µM and the TGI [4] was > 100 µM. For the same molecule, the TGI [5] was > 100 µM and the TGI [6] was > 100 µM.

Work on Cc1cc(C#N)c(Nc2c(C)cccc2[N+](=O)[O-])s1 yielded a TGI [1] of 80.6 µM, a TGI [3] of 79.4 µM and a TGI [4] of 82.3 µM. For the same molecule, the TGI [5] was > 100 µM and the TGI [6] was > 100 µM.

Work on CC1(C)CC[C@]2(C(=O)O)CC[C@]3(C)C(=CC[C@@H]4[C@@]5(C)CC[C@H](OC6OC(CO)C(O)C(O)C6OC6OC(CO)C(O)C(O)C6O)C(C)(C)[C@@H]5CC[C@]43C)[C@@H]2C1 (some centres not stated) yielded a TGI [1] of 36.2 µM, a TGI [2] of 51.9 µM and a TGI [3] of 51.9 µM. It also gave a TGI [4] of 49.2 µM, a TGI [5] of 16.4 µM and a TGI [6] of 42 µM.

In the case of O=C1OC(c2ccccc2)N/C1=C\c1ccc2c(c1)OCO2 (configuration not stated), the TGI [1] is reported as > 100 µM, the TGI [2] is reported as > 100 µM and the TGI [3] is reported as > 100 µM. For the same molecule, the TGI [4] was > 100 µM, the TGI [5] was > 100 µM and the TGI [6] was > 100 µM.

With C[C@@H]1OC(=O)/C(=C\N(C)C)[C@H]2CC(=O)N(CCc3cn(S(=O)(=O)C(F)(F)F)c4ccccc34)C[C@H]12 the TGI [1] was > 100 µM, the TGI [3] was > 100 µM and the TGI [4] was > 100 µM. The TGI [5] was > 100 µM and the TGI [6] was > 100 µM.

For CCCCOC(=O)C1CN2C(=NC1(C(F)(F)F)C(F)(F)F)Sc1ccccc12 (configuration not stated), the TGI [1] was > 100 µM, the TGI [2] was > 100 µM and the TGI [3] was > 100 µM. For the same molecule, the TGI [4] was > 100 µM, the TGI [5] was > 100 µM and the TGI [6] was > 100 µM.

For COc1ccc(-c2nnc(CCCCCCCCc3nnc(-c4ccc(OC)cc4)o3)o2)cc1, the TGI [1] was 59 µM, the TGI [3] was > 100 µM and the TGI [4] was > 100 µM. For the same molecule, the TGI [5] was > 100 µM and the TGI [6] was > 100 µM.

Cc1nc2c(ncn2CCO)c(=O)[nH]1 was tested, and the TGI [2] was > 100 µM, the TGI [3] was > 100 µM and the TGI [4] was > 100 µM. For the same molecule, the TGI [5] was > 100 µM and the TGI [6] was > 100 µM.
